The source made the active and inactive calls. No cut-off for these calls is given here.
What was measured:
Bombyx mori [1] = assay: Insecticidal activity against fourth-instar larval stage of Bombyx mori Shunrei x Shongetsu assessed as fourth-instar larval duration time at 100 ppm administered through artificial diet (reference value: 5.1 +/- 0.2 days); type: functional
Bombyx mori [2] = assay: Insecticidal activity against fourth-instar larval stage of Bombyx mori Shunrei x Shongetsu assessed as fourth-instar larval duration time at 30 ppm administered through artificial diet (reference value: 5.1 +/- 0.2 days); type: functional
Bombyx mori [3] = assay: Insecticidal activity against fourth-instar larval stage of Bombyx mori Shunrei x Shongetsu assessed as delay in increase of hemolymph 20-hydroxyecdysone level at 50 ppm administered through artificial diet measured for 5 days post third ecdysis by ELISA relative to acetone-treated control; type: functional, organism-based

With `CCN(CC)CCCOC(=O)C(C)(c1ccccc1)c1ccccc1` the Time (Bombyx mori [1]) was 5.2 days and the Time (Bombyx mori [2]) was 5.1 days.
Work on `CN1CCN(CCCOC(=O)C(C)(c2ccccc2)c2ccccc2)CC1` yielded a Time (Bombyx mori [1]) of 7.5 days and a Time (Bombyx mori [2]) of 6.9 days.
`CCN1CCN(CCCCCCOC(=O)C(C)(c2ccccc2)c2ccccc2)CC1` showed a Time (Bombyx mori [1]) of 4.5 days and a Time (Bombyx mori [2]) of 4.7 days.
For `CN1C2CCC1CC(OC(=O)C(C)(c1ccccc1)c1ccccc1)C2` (stereo unspecified), the Time (Bombyx mori [2]) was 6.1 days.
With `CCN1CCN(CCCOC(=O)C(C)(c2ccccc2)c2ccccc2)CC1` the Time (Bombyx mori [1]) was 7.2 days, the Time (Bombyx mori [2]) was 6.5 days and the Activity (Bombyx mori [3]) was “Active”.
In the case of `CCN1CCN(CCOC(=O)C(C)(c2ccccc2)c2ccccc2)CC1`, the Time (Bombyx mori [1]) is reported as 6.2 days and the Time (Bombyx mori [2]) is reported as 5.1 days.
Compound `CN1[C@@H]2CC[C@H]1CC(OC(=O)[C@H](CO)c1ccccc1)C2` (stereo partly drawn) [ENDO-ATROPINE] has a Time (Bombyx mori [1]) of 6.3 days and a Time (Bombyx mori [2]) of 5.2 days.
With `CN(CCCOC(=O)C(C)(c1ccccc1)c1ccccc1)C1CCCCC1` the Time (Bombyx mori [1]) was 5.6 days and the Time (Bombyx mori [2]) was 5 days.
For `CC(C(=O)OCCCN1CCCCC1)(c1ccccc1)c1ccccc1`, the Time (Bombyx mori [1]) was 7.4 days and the Time (Bombyx mori [2]) was 5.1 days.
In the case of `CCN1CCN(CCCCOC(=O)C(C)(c2ccccc2)c2ccccc2)CC1`, the Time (Bombyx mori [1]) is reported as 6.1 days and the Time (Bombyx mori [2]) is reported as 5.6 days.
In the case of `CC(C(=O)OCCCN1CCCC1)(c1ccccc1)c1ccccc1`, the Time (Bombyx mori [1]) is reported as 6 days and the Time (Bombyx mori [2]) is reported as 5.2 days.
`CCN1CCN(CCCCCOC(=O)C(C)(c2ccccc2)c2ccccc2)CC1` showed a Time (Bombyx mori [1]) of 5.8 days and a Time (Bombyx mori [2]) of 5.1 days.
`CC(C(=O)OCCCN1CCOCC1)(c1ccccc1)c1ccccc1` gave a Time (Bombyx mori [1]) of 6.1 days and a Time (Bombyx mori [2]) of 5 days.
